Measurements published in patent publication US8952024B2, “Herbicidal pyrimidone derivatives” (E I du Pont de Nemours and Company, priority 2009, dated 2015).

What was measured:
Assay type in all cases: in vivo
[1] = test system: umbrella sedge (Cyperus difformis); assay: Test B flooded paddy test; conditions: for Plant response rating, Sedge, Umbrella: Flood (flooded paddy test), 13 to 15 days
Outline: (§1)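 Flooded-pot test: water raised to 3 cm above soil when treating, compound put in the water, level unchanged thereafter. Plants were at 2 leaves. Readout after 13 to 15 days, visual, relative to controls; 0 signifies no effect and 100 complete control.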

rice (Oryza sativa) = assay: Test B flooded paddy test; conditions: for Plant response rating, Rice: Flood (flooded paddy test), 13 to 15 days
Outline: as §1

[2] = test system: barnyardgrass (Echinochloa crus-galli); assay: Test B flooded paddy test; conditions: for Plant response rating, Barnyardgrass: Flood (flooded paddy test), 13 to 15 days
Outline: as §1

[3] = test system: ducksalad (Heteranthera limosa); assay: Test B flooded paddy test; conditions: for Plant response rating, Ducksalad: Flood (flooded paddy test), 13 to 15 days
Outline: as §1

[4] = test system: galium (catchweed bedstraw, Galium aparine); assay: Test B pre-/postemergence plant response; conditions: Preemergence
Outline: (§2)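 Visually scored on a 0 to 100 scale after 13 to 15 days in greenhouse versus controls. Treatments were preemergence on seeded loam/sand soil and postemergence on 1- to 4-leaf plants.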

[5] = test system: ragweed (common ragweed, Ambrosia elatior); assay: Test B pre-/postemergence plant response
Outline: as §2

[6] = test system: nightshade (eastern black nightshade, Solanum ptycanthum); assay: Test B pre-/postemergence plant response; conditions: Preemergence
Outline: as §2

[7] = test system: sunflower (common oilseed sunflower, Helianthus annuus); assay: Test B pre-/postemergence plant response; conditions: Preemergence
Outline: as §2

[8] = test system: Italian ryegrass (Lolium multiflorum); assay: Test B pre-/postemergence plant response
Outline: as §2

[9] = test system: giant foxtail (Setaria faberii); assay: Test B pre-/postemergence plant response
Outline: as §2

[10] = test system: chickweed (Stellaria media); assay: Test B postemergence plant response; conditions: Postemergence
Outline: (§3)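 Plants at the 1- to 4-leaf stage (2 to 18 cm tall), grown in pots of peat moss/vermiculite medium with wetting agent and starter nutrients, received postemergence applications of test chemicals. After 13 to 15 days in a greenhouse, injury was rated visually against untreated controls on a 0 (no effect) to 100 (complete control) scale.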

[11] = test system: canarygrass (Phalaris minor); assay: Test B postemergence plant response; conditions: Postemergence
Outline: as §3

[12] = test system: windgrass (Apera spica-venti); assay: Test B postemergence plant response; conditions: Postemergence, scale 0 (no effect) to 100 (complete control)
Outline: as §3

[13] = test system: winter barley (Hordeum vulgare); assay: Test B postemergence plant response; conditions: Postemergence
Outline: as §3

[14] = test system: goosegrass (Eleusine indica); assay: Test B pre-/postemergence plant response; conditions: Preemergence, 62 g ai/ha; scale 0 to 100, 0 no effect, 100 complete control
[15] = 250 g ai/ha, flooded paddy test, visual rating on 0 to 100 scale (0 no effect, 100 complete control) after 13 to 15 days
[16] = 31 g ai/ha, scale of 0 to 100 where 0 is no effect and 100 is complete control
[17] = 62 g ai/ha, scale 0 to 100, 0 is no effect, 100 is complete control
[18] = 125 g ai/ha, scale 0 to 100, 0 is no effect, 100 is complete control
[19] = 31 g ai/ha, scale 0 to 100 (0 no effect, 100 complete control)
[20] = 62 g ai/ha, scale 0 to 100, 0 no effect, 100 complete control
[21] = 250 g ai/ha, Preemergence, 0 to 100 scale
[22] = Postemergence, 62 g ai/ha, scale 0 (no effect) to 100 (complete control), 13 to 15 days
[23] = Postemergence, 125 g ai/ha, visual rating after 13 to 15 days, scale 0 (no effect) to 100 (complete control)
[24] = Preemergence, 31 g ai/ha, scale 0 to 100 (0 no effect, 100 complete control)
[25] = Preemergence, 125 g ai/ha, 0 to 100 scale
[26] = 62 g ai/ha, scale 0 (no effect) to 100 (complete control), 13 to 15 days
[27] = 125 g ai/ha, visual rating after 13 to 15 days, scale 0 (no effect) to 100 (complete control)

## O=C1CCCC(O)=C1C(=O)c1cnc(-c2ccccc2)n(-c2ccccc2Br)c1=O [Compound 37]
[1]; [15]
  Plant response rating, Flood, Sedge, Umbrella: 40
[1]; [16]
  Plant response rating, Sedge, Umbrella: 0
[1]; [17]
  Plant response rating, Sedge, Umbrella: 20
[1]; [18]
  Plant response rating, Sedge, Umbrella: 30
Rice (Oryza sativa); [15]
  Plant response rating, Flood, Rice: 20
Rice (Oryza sativa); [16]
  Plant response rating, Rice: 0
Rice (Oryza sativa); [17]
  Plant response rating, Rice: 0
Rice (Oryza sativa); [18]
  Plant response rating, Rice: 0
[2]; [15]
  Plant response rating, Flood, Barnyardgrass: 0
[2]; [16]
  Plant response rating, Barnyardgrass: 0
[2]; [17]
  Plant response rating, Barnyardgrass: 0
[2]; [18]
  Plant response rating, Barnyardgrass: 0
[3]; [15]
  Plant response rating, Flood, Ducksalad: 60
[3]; [16]
  Plant response rating, Ducksalad: 0
[3]; [17]
  Plant response rating, Ducksalad: 30
[3]; [18]
  Plant response rating, Ducksalad: 50
[4]; 250 g ai/ha, 0 to 100 scale
  Plant response rating, Galium: 100
[4]; [19]
  Plant response rating, Galium: 0
[4]; [20]
  Plant response rating, Galium: 10
[4]; 125 g ai/ha, 0 to 100 scale
  Galium plant response rating: 30
[5]; [21]
  Plant response rating, Ragweed: 98
[5]; [22]
  Plant response rating, Ragweed: 80
[5]; [23]
  Plant response rating, Ragweed: 95
[5]; [24]
  Plant response rating, Ragweed: 0
[5]; [25]
  Ragweed plant response rating: 65
[6]; 250 g ai/ha, 0 to 100 scale
  Plant response rating, Nightshade: 85
[6]; [19]
  Plant response rating, Nightshade: 0
[6]; [20]
  Plant response rating, Nightshade: 40
[6]; 125 g ai/ha, 0 to 100 scale
  Nightshade plant response rating: 80
[7]; 250 g ai/ha, 0 to 100 scale
  Plant response rating, Sunflower: 90
[7]; [19]
  Plant response rating, Sunflower: 0
[7]; 125 g ai/ha, 0 to 100 scale
  Sunflower plant response rating: 45
[8]; [21]
  Plant response rating, Ryegrass, Italian: 0
[8]; [22]
  Plant response rating, Ryegrass, Italian: 0
[8]; [23]
  Plant response rating, Ryegrass, Italian: 5
[8]; [24]
  Plant response rating, Ryegrass, Italian: 0
[8]; [25]
  Ryegrass, Italian plant response rating: 0
[9]; [21]
  Plant response rating, Foxtail, Giant: 75
[9]; Postemergence, 31 g ai/ha, scale 0 to 100 (0 no effect, 100 complete control)
  Plant response rating, Foxtail, Giant: 70
[9]; [22]
  Plant response rating, Foxtail, Giant: 85
[9]; [23]
  Plant response rating, Foxtail, Giant: 95
[9]; Postemergence, 250 g ai/ha, scale 0 to 100
  Foxtail, Giant plant response rating: 100
[9]; [24]
  Plant response rating, Foxtail, Giant: 0
[9]; Preemergence, 62 g ai/ha, scale 0 to 100, 0 no effect, 100 complete control
  Plant response rating, Foxtail, Giant: 0
[9]; [25]
  Foxtail, Giant plant response rating: 0
[10]; [19]
  Plant response rating, Chickweed: 80
[10]; [26]
  Plant response rating, Chickweed: 80
[10]; [27]
  Plant response rating, Chickweed: 85
[10]; 250 g ai/ha, scale 0 to 100
  Chickweed plant response rating: 100
[11]; [19]
  Plant response rating, Canarygrass: 0
[11]; [26]
  Plant response rating, Canarygrass: 5
[11]; [27]
  Plant response rating, Canarygrass: 10
[11]; 250 g ai/ha, scale 0 to 100
  Canarygrass plant response rating: 30
[12]; 62 g ai/ha, 13 to 15 days
  Plant response rating, Windgrass: 30
[12]; 125 g ai/ha, visual rating after 13 to 15 days
  Plant response rating, Windgrass: 50
[13]; [19]
  Plant response rating, Barley: 0
[13]; [26]
  Plant response rating, Barley: 0
[13]; [27]
  Plant response rating, Barley: 0
[13]; 250 g ai/ha, scale 0 to 100
  Barley plant response rating: 0
[14]
  Plant response rating, Goosegrass: 0
